Measurements: patent US10881679B2, “Application of a phillyrin/phillygeninin composition in preparing a medicine or health care product for alleviating or/and treating viral diseases, and medicine or health care product for treating viral diseases” (priority 2014, dated 2021)
Marks after values point to notes of the source that are not given here.

Tests used:
[1] = tested on: rat fever induced by beer yeast; test: Rat fever induced by beer yeast (Saccharomyces cerevisiae); type: in vivo, Wistar rats; conditions: 100 mg/kg i.g.
Description: Male Wistar rats with a weight of 180˜200 g were used. Normal anal temperature of each rat was measured twice (at a certain interval) with a WSC-411P portable digital thermometer, and a mean of the two measurement values was taken as a normal body temperature of the rat. Then, 300 rats with body temperature at 36.5˜38° C. were selected and randomly divided into 30 groups by weight: model groups (0.5% methyl cellulose), phillyrin/phillygeninin compositions A and B that are divided into low, medium and high dose groups (2.5, 5, 10 mg/kg) respectively, phillyrin groups (13 mg/kg), phillygeninin groups (13 mg/kg), and positive drug paracetamol groups (100 mg/kg). Each group has 10 rates, and the test is repeated 3 times for each group. 10 mL/kg of 10% fresh Saccharomyces cerevisiae suspension was subcutaneously injected to the back of the rats of each group to induce fever. After administration of 10% fresh Saccharomyces cerevisiae suspension for 6.0 h, the phillyrin/phillygeninin composition and the paracetamol positive drug were administered by intragastric administration, and the same volume of 0.5% methyl cellulose is administrated to the model group by intragastric administration. Rectal temperatures were respectively measured at 1, 2, 3 and 4 h after the administration. Changes in the body temperature were observed and difference between the groups was compared by inter-group t test processing through antipyretic percentage. The above test was repeated totally 3 times.

[2] = tested on: rabbit fever induced by typhoid and paratyphoid vaccine; test: Rabbit fever induced by typhoid and paratyphoid vaccine; type: in vivo, Japanese big-ear white rabbits; conditions: 50 mg/kg i.g.
Description: Male Japanese big-ear white rabbits with a weight 1.5˜2.0 kg were used. Before the test, WSC-411P portable digital thermometer was used to measure the normal rectal temperature twice (with certain interval for each time), and the average value was taken as the normal body temperature of rabbits. […] Each group has 6 rabbits, and the test was repeated 3 times for each group. Rabbits were fixed into a fixator. The blank control group was intravenously injected with normal saline of 1 ml/kg via the ear margin; The model control group and each drug group were intravenously injected with typhoid and paratyphoid vaccines of 0.8 ml/kg via the ear margin. After the body temperatures of the rabbits increased by 1° C. or more (requiring about 1˜1.5 h, and this test was limited to 1 h), the blank control group and the model group were administered intragastrically with 0.5% carboxymethycellulose of 1 ml/kg, and the drug groups were administered intragastrically with phillyrin/phillygeninin compositions and paracetamol respectively. The rectal temperature was measured after administration for 30, 60, 90, 120, 180 and 240 min to observe the changes in the body temperature, and difference between the groups was compared by inter-group t test processing through antipyretic percentage.

[3] = tested on: sweat gland epithelial cells of rat paws; test: Sweat secretion of rat paws (histomorphological observation method); type: in vivo, Wistar rats; conditions: 35.0 mg/kg s.c., 30 min after administration
Excerpt: This test is based on a mechanism that when a rat is in an excited state, in addition to the increase of sweat secretion of sweat glands, the morphology of sweat gland epithelial cells changes accordingly. Under an optical microscope, it can be seen that the sweat gland epithelial cell vacuoles increase in number and expand. Under an electron microscope, such expanded vacuoles appear to be mitochondria in the sweat gland epithelial cell swelling, breakage and fusion and expansion of secretory vesicle. Therefore, through histomorphological observation of sweat gland epithelial tissue of a rat paw, secretory activities of the sweat gland can be known.
300 Wistar rats with equal male and female number, weighing 120˜160 g were used. These rats were randomly divided into 30 groups by weight and gender: control groups (0.5% of methyl cellulose), phillygeninin groups, phillyrin groups, low, medium and high dose groups (2.5, 5, 10 mg/kg) of phillyrin/phillygeninin compositions A and B separately, and positive drug pilocarpine groups (35 mg/kg). Each group has 10 rats, the test is repeated 3 times for each group. Pilocarpine solution was administered by subcutaneous injection, the remaining groups were subjected to intragastric administration. After administration of the 0.5% of methyl cellulose in the control group for one hour, after administration of the pilocarpine in the positive drug group for 30 min, and after administration of the phillyrin, the phillygeninin and the phillyrin/phillygeninin composition for one hour, the right hind limb was instantly cut off at the ankle joint to immediately take down the footpad of the right hind limb and placed into 10% of formaldehyde solution. The footpads were fixed, dehydrated, embedded, sliced and stained with HE by using conventional methods. Changes in sweat gland epithelial cells of the rat paws from each group were observed under an optical microscope, to mainly observe the percentage of vacuolization. The differences among the various groups was performed through X^2 test for statistical analysis. The above test was repeated 3 times. Percentage of vacuolization=(the number of vacuolized sweat glands)/(the number of sweat glands observed)×100%.

[4] = tested on: sweat secretion of rat paws; test: Sweat secretion of rat paws (coloring method); type: in vivo, Wistar rats; conditions: 35.0 mg/kg s.c.
Excerpt: The test is based on a mechanism that distribution of sweat glands is present in footpads of rat paws, the amount of sweat secretion and variation thereof can be observed by using a mechanism that a purple color can be produced by contacting iodine and starch when encountered with sweat.
500 Wistar rats with equal male and female number were used, weighing of 120˜150 g. These rats were randomly divided into 50 groups by weight and gender, i.e., namely 5 groups for the control groups (0.5% methyl cellulose), 5 groups for phillyrin groups, 5 groups for phillygeninin groups, 5 groups for the low, medium and high dose groups (2.5, 5, 10 mg/kg, respectively) of phillyrin/phillygeninin compositions A and B respactively, and 5 groups for the positive drug pilocarpine groups (35 mg/kg). Each group has 10 rats, 10 groups of rates are used for each test, which has 5 time periods (1, 5, 10, 15 and 20 min). The rats were placed into a self-made rat fixation bag, and both hind limbs of the rats were exposed. Dirt on the right paws was gently cleaned away using cotton swabs containing anhydrous alcohol. Pilocarpine solution was administered by subcutaneous injection, the remaining groups were subjected to intragastric administration. At 1 h (30 min for the pilocarpine group) after administration, pre-existing sweat and sweat generated due to struggle on the right paw of each rat in each group was gently wiped away with dry cotton swabs, then the paws were coated with solution A (dissolving 2 g iodine in 100 ml anhydrous alcohol) of Hetian-gaoyuanshi's reagent. After complete dryness, the paws were thinly coated with solution B (uniform mixture of 50 g soluble starch and 100 ml castor oil) of Hetian-gaoyuanshi's reagent. The color and number of dark purple coloring spots (i.e. sweat spots) were carefully observed at 1, 5, 10, 15 and 20 min after the coating of the solution B respectively with magnifying glass. After the test was completed, statistical treatment was performed according to the rank sum test with two-sample comparison, thereby comparing the differences among the various groups.

[5] = tested on: rat paw swelling induced by carrageenin; test: Rat paw swelling induced by carrageenin; type: in vivo, Wistar rats; conditions: 100 mg/kg
Description: Each group has 10 rats. Rats in each group were all administered by […] through the sublingual vein. Normal volume of the right hind paw of each rat in each group was measured in capillary magnification measurement method. In order to avoid errors, the measurement should be carried out in a fixed position and operated by the same person before and after administration. A mean of the two measurement values was taken as the normal volume of the right hind paw of a rat before administration. […] The difference between the groups was compared by inter-group t test processing through the difference percentage (swelling ratio) of the paw volume before and after the induced rat inflammation. [formula] Results

influenza virus [6] = type: in vivo, Kunming mice; conditions: 58.5 mg/kg/d i.g. 5 days
influenza virus [7] = test: Impact on virus-induced cytopathic effect in Vero cells (MTT): influenza virus; type: cell-based; conditions: influenza virus 100TCID50, Vero, 72 h; drug g/L (Table 1-2): phillyrin 0.01, Phillygeninin 0.02, compositions A, B 0.01, Ribavirin 0.70, oseltamivir phosphate 0.30
enterovirus EV71 = test: Impact on virus-induced cytopathic effect in Vero cells (MTT): EV71; type: cell-based; conditions: EV71 100TCID50, Vero, 72 h; drug g/L as Table 1-2
parainfluenza virus [8] = test: Impact on virus-induced cytopathic effect in Vero cells (MTT): parainfluenza virus; type: cell-based; conditions: parainfluenza virus 100TCID50, Vero, 72 h; drug g/L as Table 1-2
adenovirus (ADV) = test: Impact on virus-induced cytopathic effect in Vero cells (MTT): ADV; type: cell-based; conditions: ADV 100TCID50, Vero, 72 h; drug g/L as Table 1-2
parainfluenza virus [9] = type: in vivo, Kunming mice; conditions: 58.5 mg/kg/d i.g. 5 days
[10] = tested on: Coxsackievirus A16 (CoxA16); test: Impact on virus-induced cytopathic effect in Vero cells (MTT): CoxA16; type: cell-based; conditions: CoxA16 100TCID50, Vero, 72 h; drug g/L as Table 1-2
[11] = tested on: respiratory syncytial virus (RSV); test: Impact on virus-induced cytopathic effect in Vero cells (MTT): RSV; type: cell-based; conditions: RSV 100TCID50, Vero, 72 h; drug g/L as Table 1-2
[12] = tested on: Herpes zoster simplex viruses type I (HSV-I); test: Impact on virus-induced cytopathic effect in Vero cells (MTT): HSV-I; type: cell-based; conditions: HSV-I 100TCID50, Vero, 72 h; drug g/L as Table 1-2
[13] = tested on: Coxsackie virus B3 (CVB3); test: Impact on virus-induced cytopathic effect in Vero cells (MTT): CVB3; type: cell-based; conditions: CVB3 100TCID50, Vero, 72 h; drug g/L as Table 1-2
[14] = 10 min after coating solution B
[15] = 15 min after coating solution B
[16] = 20 min after coating solution B

CC(=O)Nc1ccc(O)cc1 [Paracetamol]
Body temperature ([1]; 1 h after administration): 38.66 ± 0.59 °C | antipyretic percentage (%) ([1]; 1 h after administration): −2.07 ± 0.54 % | Body temperature ([1]; 2 h after administration): 38.19 ± 0.59 °C | antipyretic percentage (%) ([1]; 2 h after administration): −3.27 ± 0.77 % | Body temperature ([1]; 3 h after administration): 37.98 ± 0.19 °C | antipyretic percentage (%) ([1]; 3 h after administration): −3.80 ± 1.43 % | Body temperature ([1]; 4 h after administration): 37.84 ± 0.32 °C | antipyretic percentage (%) ([1]; 4 h after administration): −4.15 ± 1.59 % | Body temperature ([2]; 30 min after administration): 40.53 ± 0.65 °C | antipyretic percentage (%) ([2]; 30 min after administration): −1.14 ± 0.56% | Body temperature ([2]; 60 min after administration): 40.10 ± 0.49 °C | antipyretic percentage (%) ([2]; 60 min after administration): −2.18 ± 0.17% | Body temperature ([2]; 90 min after administration): 39.83 ± 0.58 °C | antipyretic percentage (%) ([2]; 90 min after administration): −2.83 ± 0.15% | Body temperature ([2]; 120 min after administration): 39.72 ± 0.56 °C | antipyretic percentage (%) ([2]; 120 min after administration): −3.11 ± 0.20% | Body temperature ([2]; 180 min after administration): 39.61 ± 0.41 °C | antipyretic percentage (%) ([2]; 180 min after administration): −3.38 ± 0.22% | Body temperature ([2]; 240 min after administration): 39.53 ± 0.47 °C | antipyretic percentage (%) ([2]; 240 min after administration): −3.58 ± 0.38%

CC[C@@H]1C(=O)OC[C@@H]1Cc1cncn1C [Pilocarpine]
Number of sweat glands of vacuole [3]: 57 | percentage of vacuolization (%) [3]: 27.40*** % | Animal number of sweat spots of level + ([4]; 1 min after coating solution B): 1 rats | Animal number of sweat spots of level ++ ([4]; 1 min after coating solution B): 3 rats | Animal number of sweat spots of level +++ ([4]; 1 min after coating solution B): 1 rats | Animal number of sweat spots of level ++++ ([4]; 1 min after coating solution B): 5 rats | Animal number of sweat spots of level − ([4]; 1 min after coating solution B): 0 rats | Animal number of sweat spots of level + ([4]; 5 min after coating solution B): 1 rats | Animal number of sweat spots of level ++ ([4]; 5 min after coating solution B): 2 rats | Animal number of sweat spots of level +++ ([4]; 5 min after coating solution B): 1 rats | Animal number of sweat spots of level ++++ ([4]; 5 min after coating solution B): 6 rats | Animal number of sweat spots of level − ([4]; 5 min after coating solution B): 0 rats | Animal number of sweat spots of level + [4, 14]: 0 rats | Animal number of sweat spots of level ++ [4, 14]: 2 rats | Animal number of sweat spots of level +++ [4, 14]: 1 rats | Animal number of sweat spots of level ++++ [4, 14]: 6 rats | Animal number of sweat spots of level − [4, 14]: 0 rats | Animal number of sweat spots of level + [4, 15]: 0 rats | Animal number of sweat spots of level ++ [4, 15]: 2 rats | Animal number of sweat spots of level +++ [4, 15]: 1 rats | Animal number of sweat spots of level ++++ [4, 15]: 6 rats | Animal number of sweat spots of level − [4, 15]: 0 rats | Animal number of sweat spots of level + [4, 16]: 0 rats | Animal number of sweat spots of level ++ [4, 16]: 2 rats | Animal number of sweat spots of level +++ [4, 16]: 1 rats | Animal number of sweat spots of level ++++ [4, 16]: 6 rats | Animal number of sweat spots of level − [4, 16]: 0 rats

CC(=O)Oc1ccccc1C(=O)O [Aspirin]
Swelling percentage (%) ([5]; 15 min after inflammation induction): 8.90 ± 6.70 % | Swelling percentage (%) ([5]; 30 min after inflammation induction): 15.6 ± 12.2 % | Swelling percentage (%) ([5]; 60 min after inflammation induction): 20.3 ± 10.9 % | Swelling percentage (%) ([5]; 120 min after inflammation induction): 21.6 ± 12.1 % | Swelling percentage (%) ([5]; 180 min after inflammation induction): 26.1 ± 21.1 % | Swelling percentage (%) ([5]; 240 min after inflammation induction): 26.1 ± 16.3 % | Swelling percentage (%) ([5]; 300 min after inflammation induction): 34.9 ± 14.6 % | Swelling percentage (%) ([5]; 360 min after inflammation induction): 31.9 ± 12.2 %

NC(=O)c1ncn([C@@H]2O[C@H](CO)[C@@H](O)[C@H]2O)n1 [Ribavirin]
Hemagglutination titer (InX) (influenza virus [6]): 21.91 ± 1.050 | Inhibition rate (%) of hemagglutination titer (influenza virus [6]): 32.39% | antiviral effective rate (ER %) (influenza virus [7]): 57.49** % | antiviral effective rate (ER %) (enterovirus EV71): 4.25% | antiviral effective rate (ER %) (parainfluenza virus [8]): 91.56** % | antiviral effective rate (ER %) (adenovirus (ADV)): 0.43% | Hemagglutination titer (InX) (parainfluenza virus [9]): 23.22 | Inhibition rate (%) of hemagglutination titer (parainfluenza virus [9]): 29.86% | antiviral effective rate (ER %) [10]: 0.70% | antiviral effective rate (ER %) [11]: 50.08* % | antiviral effective rate (ER %) [12]: 62.92** % | antiviral effective rate (ER %) [13]: 13.44%
